Read-outs that look alike come from different tables or passages of the source.
Tests used:
[1] = molecular target: T1, human A3 receptors (hA3) (Homo sapiens, UniProt P0DMS8); test: Displacement of [125I]ABA binding at human A3 receptors expressed in HEK-293 cells
T1 construct: expressed in transfected cells; host or cells: HEK-293
T1 sequence (P0DMS8 1-318): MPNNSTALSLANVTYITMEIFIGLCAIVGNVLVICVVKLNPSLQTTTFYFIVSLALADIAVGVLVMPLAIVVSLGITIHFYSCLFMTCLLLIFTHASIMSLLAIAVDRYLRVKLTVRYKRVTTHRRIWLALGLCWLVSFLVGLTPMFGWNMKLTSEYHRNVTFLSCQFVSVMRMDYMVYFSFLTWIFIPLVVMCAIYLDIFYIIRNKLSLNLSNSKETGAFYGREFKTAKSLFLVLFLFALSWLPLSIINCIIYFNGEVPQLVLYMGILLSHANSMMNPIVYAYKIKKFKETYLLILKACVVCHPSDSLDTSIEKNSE

[2] = molecular target: T2, rat A2A receptors (rA2A) (Rattus norvegicus, UniProt P30543); test: Displacement of [3H]CGS 21680 binding in rat striatal membranes
T2 construct: to A2A receptors from rat striatal membranes was performed as described; from tissue; host or cells: rat striatal membranes
Procedure: (§1) Bruns, R. F. et al., Naunyn-Schmiedeberg's Arch. […] Binding of [^3H]R-N^6-phenylisopropyladenosine. Schwabe, U. et al., Naunyn-Schmiedeberg's Arch. […] (Dupont NEN, Boston, Mass.) to A2A receptors from rat striatal membranes was performed as described. […] All non-radioactive compounds were initially dissolved in DMSO, and diluted with buffer to the final concentration, where the amount of DMSO never exceeded 2%. Incubations were terminated by rapid filtration over Whatman GF/B filters, using a Brandell cell harvester (Brandell, Gaithersburg, Md.). The tubes were rinsed three times with 3 mL buffer each.
(§2) At least six different concentrations of competitor, spanning 3 orders of magnitude adjusted appropriately for the IC50 of each compound, were used. IC50 values, calculated with the nonlinear regression method implemented in (Graph-Pad Prism, San Diego, Calif.), were converted to apparent Ki values as described. Linden, J., J. Cycl. Nucl.

[3] = molecular target: T3, human A2B receptors (hA2B) (Homo sapiens, UniProt P29275); test: Radioligand binding ([125I]ABOPX / [3H]ZM241385) at human A2B receptors expressed in HEK-293 cells; conditions: for rA1/hA2B: Ki ratio
T3 construct: expressed in transfected cells; host or cells: HEK-293 (HEK-A2B, G418-selected)
T3 sequence (P29275 1-332): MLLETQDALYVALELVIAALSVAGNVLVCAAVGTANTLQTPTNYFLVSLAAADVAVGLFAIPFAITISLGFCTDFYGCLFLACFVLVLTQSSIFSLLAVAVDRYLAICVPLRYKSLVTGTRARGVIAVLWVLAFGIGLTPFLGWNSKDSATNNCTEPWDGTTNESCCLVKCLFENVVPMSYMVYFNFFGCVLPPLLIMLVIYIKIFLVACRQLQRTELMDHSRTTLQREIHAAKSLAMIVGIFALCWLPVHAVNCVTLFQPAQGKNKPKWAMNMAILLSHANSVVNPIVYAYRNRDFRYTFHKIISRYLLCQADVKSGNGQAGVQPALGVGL

[4] = molecular target: recombinant human A2A receptors (hA2A) (Homo sapiens, UniProt P29274); test: Radioligand binding (125I-ZM241385) at recombinant human A2A receptors in HEK-293 cells
[5] = molecular target: T4, recombinant human A1 receptors (hA1) (Homo sapiens, UniProt P30542); test: Radioligand binding ([3H]CPX) at recombinant human A1 receptors in HEK-293 cells
T4 sequence (P30542 1-326): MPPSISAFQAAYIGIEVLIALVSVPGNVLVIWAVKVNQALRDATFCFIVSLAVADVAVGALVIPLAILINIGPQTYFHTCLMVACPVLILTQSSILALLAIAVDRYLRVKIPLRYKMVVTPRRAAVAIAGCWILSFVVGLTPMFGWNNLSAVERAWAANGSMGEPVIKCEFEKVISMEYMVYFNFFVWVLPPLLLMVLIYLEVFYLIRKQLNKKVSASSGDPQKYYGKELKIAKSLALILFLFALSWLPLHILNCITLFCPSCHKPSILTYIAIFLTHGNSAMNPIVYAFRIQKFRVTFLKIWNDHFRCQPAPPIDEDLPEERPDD
Procedure: The potency of the xanthine derivatives at human A2B receptors was evaluated using two binding assays. […] In order to determine selectivity, the xanthines were evaluated using standard binding assays at A1, A2A, and A3 receptors.

[6] = molecular target: T5, rat A1 receptors (rA1) (Rattus norvegicus, UniProt P25099); test: Displacement of [3H]R-PIA binding in rat brain (cerebral cortical) membranes
T5 construct: to A1 receptors from rat cerebral cortical membranes; from tissue; host or cells: rat cerebral cortical (brain) membranes
T5 sequence (P25099 1-326): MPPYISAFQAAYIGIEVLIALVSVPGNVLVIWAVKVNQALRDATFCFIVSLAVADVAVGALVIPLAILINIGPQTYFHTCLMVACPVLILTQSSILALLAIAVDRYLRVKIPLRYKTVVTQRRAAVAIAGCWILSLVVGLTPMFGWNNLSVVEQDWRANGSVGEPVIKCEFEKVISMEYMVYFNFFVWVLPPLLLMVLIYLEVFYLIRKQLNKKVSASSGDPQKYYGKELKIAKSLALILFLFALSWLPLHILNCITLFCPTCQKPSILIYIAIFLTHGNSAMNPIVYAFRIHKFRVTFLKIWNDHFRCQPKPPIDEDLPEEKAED
Procedure: as §1, §2

[7] = Table 2, read-out: hA3 Ki or IC50
[8] = Table 2, read-out: rA2A Ki or IC50
[9] = Table 2, read-out: hA2B Ki or IC50
[10] = read-out: hA2A Ki or IC50, Table 2
[11] = read-out: hA1 Ki or IC50, Table 2
[12] = Table 2, read-out: rA1 Ki or IC50
[13] = read-out: Ki value at human A2B receptors
[14] = Table 4, footnote a: [125I]ABA, read-out: hA3 Ki (value marked ^a)
[15] = Table 4, footnote a: [125I]-ABOPX, read-out: hA2B Ki (value marked ^a) (converted)
[16] = Table 4, unmarked value, first of two binding assays, read-out: hA2B Ki
[17] = read-out: hA2A Ki, values marked (h)^a, Table 4, vs [125I]ZM241385, HEK-293
[18] = read-out: hA1 Ki, values marked (h)^a, Table 4, vs [3H]CPX, HEK-293

T2 sequence (P30543 whole entry): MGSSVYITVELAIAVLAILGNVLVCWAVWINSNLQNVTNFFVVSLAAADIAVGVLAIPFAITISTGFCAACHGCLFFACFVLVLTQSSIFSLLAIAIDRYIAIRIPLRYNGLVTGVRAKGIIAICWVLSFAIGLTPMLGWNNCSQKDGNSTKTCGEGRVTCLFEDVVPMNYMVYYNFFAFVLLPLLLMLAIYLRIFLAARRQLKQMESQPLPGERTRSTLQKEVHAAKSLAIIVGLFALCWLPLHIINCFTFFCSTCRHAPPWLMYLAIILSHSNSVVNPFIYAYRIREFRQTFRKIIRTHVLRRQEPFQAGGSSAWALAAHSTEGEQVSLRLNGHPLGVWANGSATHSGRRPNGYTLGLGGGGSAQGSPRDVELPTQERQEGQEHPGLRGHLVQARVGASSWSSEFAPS
Sequence of recombinant human A2A receptors (hA2A) (P29274 whole entry): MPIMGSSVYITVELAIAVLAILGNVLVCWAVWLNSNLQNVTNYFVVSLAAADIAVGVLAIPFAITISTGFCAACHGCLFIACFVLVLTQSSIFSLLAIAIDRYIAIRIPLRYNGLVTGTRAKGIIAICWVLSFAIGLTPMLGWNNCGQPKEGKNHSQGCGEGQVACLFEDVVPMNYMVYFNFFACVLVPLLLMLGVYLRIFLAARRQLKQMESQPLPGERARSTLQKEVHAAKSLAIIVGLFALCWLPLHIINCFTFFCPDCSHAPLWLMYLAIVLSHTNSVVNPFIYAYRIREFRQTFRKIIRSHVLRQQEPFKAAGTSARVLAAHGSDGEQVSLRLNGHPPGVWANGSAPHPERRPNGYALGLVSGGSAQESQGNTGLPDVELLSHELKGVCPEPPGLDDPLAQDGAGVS

Structure (SMILES) | Ki [1, 7] [nM] | Ki [2, 8] [nM] | melting point [°C] | Ki [3, 9] [nM] | Ki [4, 10] [nM] | Ki [5, 11] [nM] | Ki [6, 12] [nM] | also measured
CCCn1c(=O)c2[nH]c(-c3ccc(OCC(=O)Nc4cccc(C(C)=O)c4)cc3)nc2n(CCC)c1=O [Compound 19, 8-[4-[((3-Acetylphenyl)carbamoylmethyl)oxy]phenyl]-1,3-di-(n-propyl)xanthine] | 352 ± 69 | 949 ± 394 | 269 to 270 | 4.92 ± 0.55 | 58.9 ± 7.1 | 234 ± 28 | 439 ± 111 | 
CCCn1c(=O)c2[nH]c(-c3ccc(OCC(=O)Nc4ccc(C(=O)OC)cc4)cc3)nc2n(CCC)c1=O [Compound 21, 8-[4-[((4-Methoxycarbonyl)phenylcarbamoylmethyl)oxy]phenyl]-1,3-di-(n-propyl)xanthine] | 363 ± 148 | 541 ± 128 | > 310 | 3.93 ± 1.35 | 3100 | 225 ± 9 | 38.4 ± 3.9 | 
CCCn1c(=O)c2[nH]c(-c3ccc(OCC(=O)Nc4ccc([N+](=O)[O-])cc4)cc3)nc2n(CCC)c1=O [Compound 28, 8-[4-[((4-Nitro)phenylcarbamoylmethyl)oxy]phenyl]-1,3-di-(n-propyl)xanthine] | 138 ± 17.1 | 1180 | 307 |  | 70 ± 10.7 | 57 ± 3.1 | 13.1 ± 3.9 | selectivity for human A2B versus human A1 receptors [3]: 35 fold; Ki [3, 13]: 1.52 nM
CCCn1c(=O)c2[nH]c(-c3ccc(OCC(=O)Nc4ccc(C(F)(F)F)cc4)cc3)nc2n(CCC)c1=O [Compound 29, 8-[4-[((4-Trifluoromethyl)phenylcarbamoylmethyl)oxy]phenyl]-1,3-di-(n-propyl)xanthine] | 213 ± 94 | 917 ± 258 | > 310 |  | 238 ± 28 | 61.2 ± 8.2 | 44.6 ± 6.5 | Ki [3, 13]: 2.14 nM
CCCn1c(=O)c2[nH]c(-c3ccc(/C=C/C(=O)Nc4ccccc4C(C)=O)cc3)nc2n(CCC)c1=O [Compound 35, 8-[4(2-(2-Acetylphenyl)carbamoyl-trans-vinyl)phenyl]-1,3-di-(n-propyl)xanthine] |  |  | 281 to 283 |  |  |  |  | Ki ([1]; Table 3, read-out: hA3 Ki or IC50): 121 ± 138 nM; Ki ([6]; Table 3, read-out: rA1 Ki or IC50): 7.67 ± 2.2 nM; Ki ([2]; Table 3, read-out: rA2A Ki or IC50): 143 ± 50 nM; Ki ([3]; Table 3, read-out: hA2B Ki or IC50): 3.65 ± 0.98 nM
CCCn1c(=O)c2[nH]c(-c3ccc(OCC(=O)NNC(C)=O)cc3)nc2n(CCC)c1=O [Compound 41, 8-[4-[(Carboxymethyl)oxy]phenyl]-1,3-di-(n-propyl)xanthine N-Acetylhydrazide] |  |  |  |  |  |  |  | Ki [1, 14]: 30.9 ± 8.2 nM; Ki ([6]; Table 4, read-out: rA1 Ki): 6.51 ± 1.24 nM; Ki ([2]; Table 4, read-out: rA2A Ki): 227 ± 64 nM; rA1/hA2B ([3]; Table 4): 0.10; Ki [3, 15]: 33.8 ± 13.7 nM; Ki [3, 16]: 65.4 ± 6.5 nM; Ki [4, 17]: 186 ± 9 nM; Ki [5, 18]: 125 ± 14 nM
CCCn1c(=O)[nH]c(=O)c2[nH]c(-c3ccc(OCC(=O)NN4C(=O)C(C)=C(C)C4=O)cc3)nc21 [Compound 48] |  |  |  |  |  |  |  | Ki [1, 14]: 14200 nM; Ki ([6]; Table 4, read-out: rA1 Ki): 3590 ± 920 nM; rA2A % displacement of specific binding ([2]; Table 4, at 100,000 nM): 36 ± 4%; rA1/hA2B ([3]; Table 4): 2.0; Ki [3, 15]: 1900 nM; Ki [3, 16]: 1800 nM; Ki [4, 17]: 5480 nM; Ki [5, 18]: 8080 nM
CCCn1c(=O)c2[nH]c(-c3ccc(OCC(=O)NN4C(=O)c5ccccc5C4=O)cc3)nc2n(CCC)c1=O [Compound 57, 8-[4-[(Carboxymethyl)oxy]phenyl]-1,3-di-(n-propyl)xanthine N,N-Phthaloylhydrazide] |  |  |  |  |  |  |  | Ki [1, 14]: 147 ± 21 nM; Ki ([6]; Table 4, read-out: rA1 Ki): 26.3 ± 2.3 nM; Ki ([2]; Table 4, read-out: rA2A Ki): 392 ± 117 nM; rA1/hA2B ([3]; Table 4): 0.41; Ki [3, 15]: 46.4 nM; Ki [3, 16]: 64.4 ± 0.8 nM; Ki [4, 17]: 359 nM; Ki [5, 18]: 210 nM

Now from value to compound, other results behind:

Ki [1, 7] [nM] | Ki [2, 8] [nM] | melting point [°C] | Ki [3, 9] [nM] | Ki [4, 10] [nM] | Ki [5, 11] [nM] | Ki [6, 12] [nM] | Structure (SMILES) | also measured
137 ± 54 | 45.6 ± 1.4 | 301 to 302 | 1.48 ± 0.63 | 25.8 ± 4.5 | 40.1 ± 5.1 |  | CCCn1c(=O)c2[nH]c(-c3ccc(OCC(=O)Nc4ccccc4)cc3)nc2n(CCC)c1=O [Compound 12, 8-[4-[(Phenylcarbamoylmethyl)oxy]phenyl]-1,3-di-(n-propyl)-xanthine] | 
79.2 ± 17.8 |  | 268 |  |  | 54.7 ± 21.2 | 5.02 ± 0.55 | CCCn1c(=O)c2[nH]c(-c3ccc(OCC(=O)NCc4ccccc4)cc3)nc2n(CCC)c1=O [Compound 13, 8-[4-[(Benzylcarbamoylmethyl)oxy]phenyl]-1,3-di-(n-propyl)-xanthine] | Ki ([2]; read-out: rA2A Ki or IC50): 25.9 ± 7.6 nM; Ki ([4]; read-out: hA2A Ki or IC50): 23.8 ± 5.71 nM
284 ± 14 | 2750 | 230 | 9.88 ± 1.05 | 642 ± 198 | 690 ± 98 | 167 ± 49 | CCCn1c(=O)c2[nH]c(-c3ccc(OCC(=O)N(Cc4ccccc4)Cc4ccccc4)cc3)nc2n(CCC)c1=O [Compound 15, 8-[4-[(Dibenzylcarbamoylmethyl)oxy]phenyl]-1,3-di-(n-propyl)-xanthine] | 
61.9 ± 3.4 | 434 ± 129 | 294 | 2.74 ± 1.01 | 431 ± 176 | 335 ± 64 | 27.9 ± 1.6 | CCCn1c(=O)c2[nH]c(-c3ccc(OCC(=O)Nc4ccccc4C(C)=O)cc3)nc2n(CCC)c1=O [Compound 18, 8-[4-[((2-Acetylphenyl)carbamoylmethyl)oxy]phenyl]-1,3-di-(n-propyl)xanthine] | selectivity for human A2B versus human A1 receptors [3]: 120 fold; selectivity for human A2B versus human A2A receptors [3]: 160 fold; selectivity for human A2B versus human A3 receptors [3]: 23 fold; selectivity for human A2B versus rat A1 receptors [3]: 10 fold; selectivity for human A2B versus rat A2A receptors [3]: 160 fold
391 ± 147 | 988 ± 518 | 298 | 2.22 ± 0.19 | 16.6 ± 3.6 | 17.9 ± 4.5 | 2.72 ± 0.51 | CCCn1c(=O)c2[nH]c(-c3ccc(OCC(=O)Nc4ccc(F)cc4)cc3)nc2n(CCC)c1=O [Compound 30, 8-[4-[((4-Fluoro)phenylcarbamoylmethyl)oxy]phenyl]-1,3-di-(n-propyl)xanthine] | selectivity for human A2B versus rat A1 receptors [3]: 1 fold

Reference: patent US6545002B1 (University of Virginia Patent Foundation, priority 1999, dated 2003)
